Measured values reported in patent US20150307520A1, “NOVEL HETEROARYL AND HETEROCYCLE COMPOUNDS, COMPOSITIONS AND METHODS THEREOF” (HUTCHISON MEDIPHARMA LIMITED, priority 2012, published 2015).

How the values were obtained:
Format in all cases: biochemical
[1] = molecular target: p110β/p85α (Homo sapiens, UniProt P42338); assay: Transcreener KINASE Assay, kinase inhibition of p110β/p85α; conditions: for IC50: read-out: PI3Kβ IC50; for PI3Kβ IH % @ 1 uM: 1 uM test compound
Method in brief: (§1)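 Recombinant human PI3K heterodimers (p110/p85α) incubated with compound (2% DMSO final) in HEPES/NaCl/EGTA/CHAPS/MgCl2/DTT buffer with 30 uM PIP2 and 10 uM ATP (as added) for 80 min at room temperature.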

[2] = molecular target: p110δ/p85α (Homo sapiens, UniProt O00329); assay: Transcreener KINASE Assay, kinase inhibition of p110δ/p85α; conditions: for IC50: read-out: PI3Kδ IC50; for PI3Kδ IH % @ 1 uM: 1 uM test compound
Method in brief: as §1

[3] = molecular target: p110γ (Homo sapiens, UniProt P48736); assay: Transcreener KINASE Assay, kinase inhibition of p110γ; conditions: for IC50: read-out: PI3Kγ IC50; for PI3Kγ IH % @ 1 uM: 1 uM test compound
Method in brief: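 FP read-out: far-red competitive immunoassay sensing ADP produced by recombinant p110/p85 or p110γ enzyme. Reaction 80 min RT, then detection mix 60 min RT. IC50 from curve fit.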

Sequence of p110δ/p85α (O00329 whole entry): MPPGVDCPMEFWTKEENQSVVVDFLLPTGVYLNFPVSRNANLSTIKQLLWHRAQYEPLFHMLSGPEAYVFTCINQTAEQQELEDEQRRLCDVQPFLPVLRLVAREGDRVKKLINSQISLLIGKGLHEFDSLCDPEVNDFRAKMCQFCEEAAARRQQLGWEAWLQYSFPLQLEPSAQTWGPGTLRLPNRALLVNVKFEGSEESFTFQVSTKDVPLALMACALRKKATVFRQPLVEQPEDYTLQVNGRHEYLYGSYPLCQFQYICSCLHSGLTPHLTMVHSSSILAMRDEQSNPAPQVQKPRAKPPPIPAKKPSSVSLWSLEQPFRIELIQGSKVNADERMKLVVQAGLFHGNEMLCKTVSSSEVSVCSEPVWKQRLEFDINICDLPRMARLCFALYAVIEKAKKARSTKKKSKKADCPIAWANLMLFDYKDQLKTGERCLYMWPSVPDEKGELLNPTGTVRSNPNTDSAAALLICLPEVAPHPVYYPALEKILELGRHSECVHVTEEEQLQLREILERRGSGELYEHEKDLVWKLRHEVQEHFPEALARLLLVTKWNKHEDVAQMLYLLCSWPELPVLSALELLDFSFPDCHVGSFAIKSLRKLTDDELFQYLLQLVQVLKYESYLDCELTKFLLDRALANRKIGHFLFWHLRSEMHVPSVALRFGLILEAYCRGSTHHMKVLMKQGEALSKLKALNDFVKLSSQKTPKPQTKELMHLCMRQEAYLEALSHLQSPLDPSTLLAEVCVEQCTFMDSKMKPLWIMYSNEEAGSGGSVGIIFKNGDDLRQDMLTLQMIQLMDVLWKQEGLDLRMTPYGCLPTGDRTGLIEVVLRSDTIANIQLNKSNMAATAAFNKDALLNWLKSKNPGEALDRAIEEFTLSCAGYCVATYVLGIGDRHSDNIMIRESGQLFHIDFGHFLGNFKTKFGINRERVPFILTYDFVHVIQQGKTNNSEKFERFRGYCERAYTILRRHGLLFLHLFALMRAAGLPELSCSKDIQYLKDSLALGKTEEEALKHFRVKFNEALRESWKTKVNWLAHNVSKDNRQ
Sequence of p110δ/p85α (P27986 whole entry partner): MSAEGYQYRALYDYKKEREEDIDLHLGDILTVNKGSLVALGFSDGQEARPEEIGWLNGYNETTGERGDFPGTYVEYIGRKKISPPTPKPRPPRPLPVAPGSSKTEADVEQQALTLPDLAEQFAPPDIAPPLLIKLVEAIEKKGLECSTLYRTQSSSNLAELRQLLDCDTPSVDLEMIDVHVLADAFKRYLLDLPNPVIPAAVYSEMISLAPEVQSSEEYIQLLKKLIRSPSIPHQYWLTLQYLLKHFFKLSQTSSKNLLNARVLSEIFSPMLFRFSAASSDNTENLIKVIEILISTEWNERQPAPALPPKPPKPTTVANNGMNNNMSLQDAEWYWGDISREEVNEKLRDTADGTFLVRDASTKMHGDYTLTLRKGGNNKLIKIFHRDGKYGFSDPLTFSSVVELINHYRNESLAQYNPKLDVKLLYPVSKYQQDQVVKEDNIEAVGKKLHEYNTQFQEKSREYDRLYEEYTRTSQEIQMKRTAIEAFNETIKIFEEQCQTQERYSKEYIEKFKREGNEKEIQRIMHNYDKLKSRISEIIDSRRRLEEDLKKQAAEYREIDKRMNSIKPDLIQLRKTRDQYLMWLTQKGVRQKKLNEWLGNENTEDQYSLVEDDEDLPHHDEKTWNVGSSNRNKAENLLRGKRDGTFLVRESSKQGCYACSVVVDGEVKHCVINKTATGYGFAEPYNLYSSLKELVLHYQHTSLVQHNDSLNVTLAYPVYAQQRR
Sequence of p110γ (P48736 whole entry): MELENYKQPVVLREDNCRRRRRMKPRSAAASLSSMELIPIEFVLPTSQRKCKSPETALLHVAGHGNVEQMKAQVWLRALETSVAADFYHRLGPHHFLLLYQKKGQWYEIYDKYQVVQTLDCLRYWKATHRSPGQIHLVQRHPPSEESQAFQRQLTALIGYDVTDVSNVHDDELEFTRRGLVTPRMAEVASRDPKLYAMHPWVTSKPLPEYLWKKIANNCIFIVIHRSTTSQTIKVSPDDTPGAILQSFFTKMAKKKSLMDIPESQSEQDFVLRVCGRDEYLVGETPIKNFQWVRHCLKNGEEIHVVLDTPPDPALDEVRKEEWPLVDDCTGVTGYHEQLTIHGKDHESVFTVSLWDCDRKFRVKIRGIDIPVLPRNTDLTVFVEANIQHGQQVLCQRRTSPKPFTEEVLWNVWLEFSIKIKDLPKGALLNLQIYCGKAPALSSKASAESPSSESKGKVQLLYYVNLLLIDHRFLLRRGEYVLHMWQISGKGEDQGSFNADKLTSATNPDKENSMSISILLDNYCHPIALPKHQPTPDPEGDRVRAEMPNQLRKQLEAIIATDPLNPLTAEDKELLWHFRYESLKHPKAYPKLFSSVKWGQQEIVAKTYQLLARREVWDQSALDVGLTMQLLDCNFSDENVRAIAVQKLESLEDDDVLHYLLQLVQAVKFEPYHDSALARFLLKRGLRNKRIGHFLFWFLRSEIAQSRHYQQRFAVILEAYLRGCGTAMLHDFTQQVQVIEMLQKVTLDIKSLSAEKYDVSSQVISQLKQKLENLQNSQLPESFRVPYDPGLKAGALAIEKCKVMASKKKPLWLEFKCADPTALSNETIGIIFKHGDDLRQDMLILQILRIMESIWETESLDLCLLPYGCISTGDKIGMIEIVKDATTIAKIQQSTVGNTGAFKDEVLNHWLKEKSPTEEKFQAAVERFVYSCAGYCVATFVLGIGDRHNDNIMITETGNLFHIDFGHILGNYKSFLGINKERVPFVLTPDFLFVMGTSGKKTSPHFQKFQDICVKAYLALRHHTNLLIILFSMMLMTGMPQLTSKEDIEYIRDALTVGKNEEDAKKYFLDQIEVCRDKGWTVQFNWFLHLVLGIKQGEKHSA
Sequence of p110β/p85α (P42338 whole entry): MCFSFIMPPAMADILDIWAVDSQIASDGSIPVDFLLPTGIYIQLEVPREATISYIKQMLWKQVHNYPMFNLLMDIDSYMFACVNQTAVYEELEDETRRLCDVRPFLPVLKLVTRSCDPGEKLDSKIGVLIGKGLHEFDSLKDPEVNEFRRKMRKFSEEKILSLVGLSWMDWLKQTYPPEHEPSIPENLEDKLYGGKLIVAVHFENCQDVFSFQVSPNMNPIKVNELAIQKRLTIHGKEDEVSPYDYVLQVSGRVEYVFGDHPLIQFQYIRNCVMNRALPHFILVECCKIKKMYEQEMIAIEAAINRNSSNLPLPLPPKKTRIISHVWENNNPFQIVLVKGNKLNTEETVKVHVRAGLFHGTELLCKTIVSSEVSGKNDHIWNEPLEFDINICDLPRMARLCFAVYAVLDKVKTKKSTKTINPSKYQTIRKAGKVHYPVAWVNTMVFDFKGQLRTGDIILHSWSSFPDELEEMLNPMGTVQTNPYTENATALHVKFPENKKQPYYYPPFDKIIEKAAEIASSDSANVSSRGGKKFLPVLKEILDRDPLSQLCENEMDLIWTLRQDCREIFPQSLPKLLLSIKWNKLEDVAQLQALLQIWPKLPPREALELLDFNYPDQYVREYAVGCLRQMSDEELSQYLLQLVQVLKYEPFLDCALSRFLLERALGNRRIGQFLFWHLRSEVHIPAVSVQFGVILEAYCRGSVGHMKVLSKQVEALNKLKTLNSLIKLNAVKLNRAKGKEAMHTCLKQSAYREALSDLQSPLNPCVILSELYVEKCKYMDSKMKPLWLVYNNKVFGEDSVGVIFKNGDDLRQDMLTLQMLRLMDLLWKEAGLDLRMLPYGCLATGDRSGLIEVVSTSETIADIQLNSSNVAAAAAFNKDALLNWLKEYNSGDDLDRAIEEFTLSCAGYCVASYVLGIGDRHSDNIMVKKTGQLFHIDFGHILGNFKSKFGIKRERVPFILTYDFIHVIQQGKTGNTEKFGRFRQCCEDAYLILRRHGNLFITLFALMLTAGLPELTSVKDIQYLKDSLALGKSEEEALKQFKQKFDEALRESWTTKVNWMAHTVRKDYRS
Sequence of p110β/p85α (P27986 2-724 partner): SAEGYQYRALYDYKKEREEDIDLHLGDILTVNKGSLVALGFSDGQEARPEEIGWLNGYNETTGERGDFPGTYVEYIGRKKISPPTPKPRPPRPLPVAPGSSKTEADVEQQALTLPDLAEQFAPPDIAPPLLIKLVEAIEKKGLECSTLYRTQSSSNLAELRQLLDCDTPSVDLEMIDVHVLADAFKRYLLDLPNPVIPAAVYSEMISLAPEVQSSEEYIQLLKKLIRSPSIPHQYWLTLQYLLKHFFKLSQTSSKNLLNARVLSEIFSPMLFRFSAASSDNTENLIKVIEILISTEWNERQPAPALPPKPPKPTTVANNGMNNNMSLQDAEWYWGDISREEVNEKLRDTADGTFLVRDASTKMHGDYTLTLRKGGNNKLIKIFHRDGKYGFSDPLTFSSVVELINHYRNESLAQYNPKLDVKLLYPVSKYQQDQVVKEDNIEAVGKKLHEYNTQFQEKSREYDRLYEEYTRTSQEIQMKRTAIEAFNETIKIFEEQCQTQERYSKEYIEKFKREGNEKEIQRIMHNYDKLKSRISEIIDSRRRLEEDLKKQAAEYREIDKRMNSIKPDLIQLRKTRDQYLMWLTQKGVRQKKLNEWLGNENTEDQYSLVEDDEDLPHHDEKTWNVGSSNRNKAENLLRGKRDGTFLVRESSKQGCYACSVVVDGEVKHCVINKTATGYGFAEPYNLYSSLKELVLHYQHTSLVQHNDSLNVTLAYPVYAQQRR

Structure (SMILES) | IC50 [1] | IC50 [2] | IC50 [3] | PI3Kβ IH % @ 1 uM [1] | PI3Kδ IH % @ 1 uM [2] | PI3Kγ IH % @ 1 uM [3]
O=C1C[C@@H](c2nn3ccc(Cl)c3c(=O)n2-c2ccccc2)N(c2ncnc3[nH]cnc23)C1 [Compound 381] | 199 nM | 3 nM | 29 nM | – | – | –
C[C@@H](Nc1nc(N)ncc1C#N)c1cc2ncc(Cl)n2c(=O)n1-c1ccccc1 [Compound 384, (R)-2-amino-4-((1-(3-chloro-5-oxo-6-phenyl-5,6-dihydroimidazo[1,2-c]pyrimidin-7-yl)ethyl)amino)pyrimidine-5-carbonitrile] | – | 240 nM | – | 24.7% | 91.0% | 53.6%
C[S@+]([O-])c1c[nH]c2ncnc(N3CCC[C@H]3c3nn4ccc(Cl)c4c(=O)n3-c3ccccn3)c12 [Compound 388, 5-chloro-2-((S)-1-(5-((S)-methylsulfinyl)-7H-pyrrolo[2,3-d]pyrimidin-4-yl)pyrrolidin-2-yl)-3-(pyridin-2-yl)pyrrolo[2,1-f][1,2,4]triazin-4(3H)-one] | – | 2 nM | 173 nM | 69.3% | 96.2% | 80.7%
C[S@@+]([O-])c1c[nH]c2ncnc(N3CC[C@H]3c3nn4ccc(Cl)c4c(=O)n3-c3ccccn3)c12 [Compound 391, 5-chloro-2-((S)-1-(5-((R)-methylsulfinyl)-7H-pyrrolo[2,3-d]pyrimidin-4-yl)azetidin-2-yl)-3-(pyridin-2-yl)pyrrolo[2,1-f][1,2,4]triazin-4(3H)-one] | – | 185 nM | 129 nM | 0.1% | 91.4% | 90.5%
C[S@+]([O-])c1c[nH]c2ncnc(N3C[C@@H](F)C[C@H]3c3nn4ccc(Cl)c4c(=O)n3-c3cccc(F)c3)c12 [Compound 392, 5-chloro-2-((2S,4S)-4-fluoro-1-(5-((S)-methylsulfinyl)-7H-pyrrolo[2,3-d]pyrimidin-4-yl)pyrrolidin-2-yl)-3-(3-fluorophenyl)pyrrolo[2,1-f][1,2,4]triazin-4(3H)-one] | – | 11 nM | 62 nM | 67.2% | 95.9% | 89.1%
C[S@@+]([O-])c1c[nH]c2ncnc(N3C[C@@H](F)C[C@H]3c3nn4ccc(Cl)c4c(=O)n3-c3cccc(F)c3)c12 [Compound 393, 5-chloro-2-((2S,4S)-4-fluoro-1-(5-((R)-methylsulfinyl)-7H-pyrrolo[2,3-d]pyrimidin-4-yl)pyrrolidin-2-yl)-3-(3-fluorophenyl)pyrrolo[2,1-f][1,2,4]triazin-4(3H)-one] | – | 9 nM | 9 nM | 35.2% | 94.7% | 90.7%
C[S@+]([O-])c1c[nH]c2ncnc(N3CCC[C@H]3c3nn4ccc(F)c4c(=O)n3-c3ccccc3)c12 [Compound 396, 5-fluoro-2-((S)-1-(5-((S)-methylsulfinyl)-7H-pyrrolo[2,3-d]pyrimidin-4-yl)pyrrolidin-2-yl)-3-phenylpyrrolo[2,1-f][1,2,4]triazin-4(3H)-one] | 369 nM | 2 nM | 17 nM | 86.1% | >100% | 94.1%
C[S@@+]([O-])c1c[nH]c2ncnc(N3CCC[C@H]3c3nn4ccc(F)c4c(=O)n3-c3ccccc3)c12 [Compound 397, 5-fluoro-2-((S)-1-(5-((R)-methylsulfinyl)-7H-pyrrolo[2,3-d]pyrimidin-4-yl)pyrrolidin-2-yl)-3-phenylpyrrolo[2,1-f][1,2,4]triazin-4(3H)-one] | 2350 nM | 11 nM | 13 nM | 52.0% | >100% | 96.5%
CC(=O)c1c(C)nc(N)nc1N1CC[C@H]1c1nn2ccc(Cl)c2c(=O)n1-c1ccccc1 [Compound 398] | – | 25 nM | 18 nM | 22.6% | 99.1% | >100%
C[S+]([O-])c1cnc(N)nc1N1CC[C@H]1c1nn2ccc(Cl)c2c(=O)n1-c1ccccc1 (stereo partly drawn) [Compound 399] | – | – | – | 3.5% | 35.1% | 70.3%
O=C1C[C@@H](c2nn3ccc(F)c3c(=O)n2-c2ccccc2)N(c2ncnc3[nH]cnc23)C1 [Compound 400] | – | 12 nM | 81 nM | 22.2% | >100% | 70.4%
N#Cc1cnc(N)nc1N1CC(=O)C[C@H]1c1nn2ccc(F)c2c(=O)n1-c1ccccc1 [Compound 401] | – | 4 nM | 189 nM | 46.7% | >100% | 67.8%
CC(=O)c1c[nH]c2ncnc(N3CC(=O)C[C@H]3c3nn4ccc(Cl)c4c(=O)n3-c3ccccc3)c12 [Compound 402] | – | 67 nM | – | 21.7% | 93.4% | 65.8%
N#Cc1cnc(N)nc1N1CC(=O)C[C@H]1c1nn2ccc(Cl)c2c(=O)n1-c1ccccc1 [Compound 403] | 123 nM | 1 nM | 7 nM | 71.7% | 98.1% | 93.1%
N#Cc1cnc(N)nc1N1CC(=O)C[C@H]1c1nn2ccc(Cl)c2c(=O)n1-c1cccc(F)c1 [Compound 404] | – | 3 nM | 10 nM | 31.1% | 93.7% | 95.6%
CC(=O)c1c[nH]c2ncnc(N[C@H](C)c3cn4ccc(F)c4c(=O)n3-c3ccccc3)c12 [Compound 405, (R)-3-(1-((5-acetyl-7H-pyrrolo[2,3-d]pyrimidin-4-yl)amino)ethyl)-8-fluoro-2-phenylpyrrolo[1,2-a]pyrazin-1(2H)-one] | 332 nM | 3 nM | 2 nM | 86.5% | >100% | 92.3%
CC(=O)c1c[nH]c2ncnc(N[C@@H](C)c3cn4ccc(F)c4c(=O)n3-c3ccccc3)c12 [Compound 406, (S)-3-(1-((5-acetyl-7H-pyrrolo[2,3-d]pyrimidin-4-yl)amino)ethyl)-8-fluoro-2-phenylpyrrolo[1,2-a]pyrazin-1(2H)-one] | – | 73 nM | – | 7.7% | 90.0% | 35.2%
C[C@H]1CN(c2nc(N)ncc2C#N)C1c1nn2ccc(F)c2c(=O)n1-c1ccccc1 (stereo partly drawn) [Compound 430] | – | 13 nM | 52 nM | 28.1% | 93.9% | 87.3%
C[C@H]1CN(c2nc(N)ncc2C#N)C1c1nn2ccc(Cl)c2c(=O)n1-c1ccc(F)cc1 (stereo partly drawn) [Compound 432] | – | 160 nM | 9 nM | 43.2% | 81.3% | 89.0%
CC(=O)c1cnc(N)nc1NC(C)c1cn2ccc(Cl)c2c(=O)n1-c1cccc(F)c1 (stereo not drawn) [Compound 435] | 14 nM | 3 nM | – | 91.2% | 99.7% | 83.7%
Cc1nc(N)nc(N2C[C@H](C)C2c2nn3ccc(Cl)c3c(=O)n2-c2ccccc2)c1C#N (stereo partly drawn) [Compound 437] | 27 nM | 1 nM | 2 nM | 97.1% | 96.3% | 91.3%
CC(=O)c1cnc(N)nc1N1C[C@H](C)C1c1nn2ccc(F)c2c(=O)n1-c1ccc(F)cc1 (stereo partly drawn) [Compound 438] | 273 nM | 23 nM | 6 nM | 79.3% | 91.2% | 91.4%
Cc1nc(N)nc(N2C[C@H](C)C2c2nn3ccc(Cl)c3c(=O)n2-c2ccc(F)cc2)c1C#N (stereo partly drawn) [Compound 439] | 22 nM | 2 nM | 3 nM | 93.0% | 98.1% | 92.4%
CC(=O)c1cnc(N)nc1N1CC[C@H]1c1nn2ccc(Cl)c2c(=O)n1-c1cccc(F)c1 [Compound 440] | – | 11 nM | 17 nM | 20.3% | 95.2% | 95.8%
Cc1nc(N)nc(N2CC[C@H]2c2nn3ccc(Cl)c3c(=O)n2-c2cccc(F)c2)c1C#N [Compound 441] | – | 2 nM | 14 nM | 56.2% | 95.5% | 97.7%
Cc1nc(N)nc(N2CC[C@H]2c2nn3ccc(Cl)c3c(=O)n2-c2ccc(F)cc2)c1C#N [Compound 442] | – | 12 nM | 1 nM | 76.1% | 94.2% | 94.6%
CC(=O)c1c[nH]c2ncnc(N3CC(=O)C[C@H]3c3nn4ccc(F)c4c(=O)n3-c3ccccc3)c12 [Compound 445] | – | 240 nM | – | 22.3% | 77.5% | 4.3%
CC(=O)c1cnc(N)nc1N1CC(=O)C[C@H]1c1nn2ccc(F)c2c(=O)n1-c1ccccc1 [Compound 446] | – | 319 nM | – | 20.1% | 85.8% | 40.0%
